Where two headings read alike, the source gives them in different places.
Key:
Assay type in all cases: cell-based
Escherichia coli JT 39 = assay: minimum inhibitory concentration, Escherichia coli JT 39 (DST agar+10% horse blood)
Method: (§1) The minimum inhibitory concentrations (MIC) of the compound (e54) was determined using a standard DST agar+10% horse blood substrate. The tests used an undiluted inoculum of bacteria. […]
(§2) The minimum inhibitory concentrations (MIC) of this compound was determined using a standard DST agar+10% horse blood substrate.
(§3) The minimum inhibitory concentrations (MIC) of this compound was determined using a standard DST agar+10% horse blood substrate. The tests used an undiluted inoculum of bacteria.

Citrobacter freundii E8 = assay: minimum inhibitory concentration, Citrobacter freundii E8 (DST agar+10% horse blood)
Method: as §1, §2, §3

[1] = tested on: Salmonella typhimurium CT10; assay: minimum inhibitory concentration, Salmonella typhimurium CT10 (DST agar+10% horse blood); settings: Salmonella enterica
Method: as §1, §2, §3

Serratia marcescens US20 = assay: minimum inhibitory concentration, Serratia marcescens US20 (DST agar+10% horse blood)
Method: as §1, §2, §3

[2] = tested on: Streptococcus pyogenes CN10; assay: minimum inhibitory concentration, Streptococcus pyogenes CN10 (DST agar+10% horse blood)
Method: as §1, §2, §3

Escherichia coli 0111 = assay: minimum inhibitory concentration, Escherichia coli 0111 (DST agar+10% horse blood)
Method: as §1, §2, §3

Proteus morganii I580 = assay: minimum inhibitory concentration, Proteus morganii I580 (DST agar+10% horse blood); settings: Morganella morganii, Proteus morganii I580, DST agar+10% horse blood, read-out: MIC
Method: The minimum inhibitory concentrations (MIC) of the compound (e54) was determined using a standard DST agar+10% horse blood substrate. The tests used an undiluted inoculum of bacteria.
Sodium (5R,6S)-3-(2-acetamidoethylthio)--6-ethyl-7-oxo-1-azabicyclo[3.2.0]-hept-2-ene-2-carboxylate [drawing 60] p-Methoxycarbonylbenzyl (5R,6S)-3-(2-acetamidoethylthio)-6-ethyl-7-oxo-1-azabicyclo[3.2.0]hept-2-ene-2-carboxylate (e58) (18 mg) was added to the cathodic compartment of an H-type divided two-compartment electrochemical cell, with a mercury cathode and a platinum anode. The cell contained degassed 0.1 M n-Bu4 NI in dimethylformamide as electrolyte. The volume of the catholyte was about 15 ml [glacial acetic acid (about 10 mg) added] and the volume of the anolyte was about 8 ml. A potentiostat was employed to fix the potential of the cathode at -1.9 V with respect to the standard calomel electrode, and the initial current, about 56 mA, fell to about 15 mA after about 15 min. The catholyte was removed from the cell and the solvent was evaporated in vacuo. The residue was taken up in CH2 Cl2 (10 ml) and washed with water (10 ml). The aqueous phase was separated and washed with CH2 Cl2. The aqueous phase, containing the tetrabutylammonium salt corresponding to (e63) was passed through an Amberlite IR 120 (Na form) column (17×1 cm) and the eluate was reduced to low volume by evaporation in vacuo. The residue was passed through a Biogel P-2 column, to yield fractions containing sodium (5R,6S)-3-(2-acetamidoethylthio)-6-ethyl-7-oxo-1-azabicyclo[3.2.0]hept-2-ene-2-carboxylate (e63) having λmax 298 nm. The minimum inhibitory concentrations (MIC) of this compound was determined using a standard DST agar+10% horse blood substrate.
Sodium (5R,6S)-3-[(E)-2-acetamidoethenylthio]-6-ethyl-7-oxo-1-azabicyclo[3.2.0]hept-2-ene-2-carboxylate [drawing 68] p-Methoxycarbonylbenzyl (5R,6S)-3-[(E)-2-acetamidoethenylthio]-6-ethyl-7-oxo-1-azabicyclo[3.2.0]hept-2-ene-2-carboxylate (e72) (64 mg) in solution in 0.1 M (n-C4 H9)4 NBF4 in dry DMF was added to the cathodic compartment of a divided cylindrical electrochemical cell, with a mercury cathode and platinum anode. The volume of electrolyte in the cathodic compartment was about 25 ml, and in the anodic compartment about 10 ml. Acetic acid (12 mg) was added to the cathodic compartment and ethanol (250 mg) was added to the anodic compartment. The cell was degassed by passing argon for 30 min. The potentiostat was engaged to maintain the potential of the cathode at -1.9 V w.r.t. standard calomel electrode. The initial current (40 mA) fell to about 5 mA after 25 min. The solvent was removed from the catholyte by evaporation in vacuo and the residual oil was taken up in CH2 Cl2 (20 ml) and extracted with water (15 ml) containing sodium tetrafluoroborate (100 mg). The aqueous extract was washed with CH2 Cl2 and then passed down an Amberlite 1R 120 column (1×20 cm) in the sodium form. The volume of the eluate was reduced to about 5 ml by evaporation in vacuo and loaded onto a Biogel P-2 column (18×3 cm). Elution with water yielded fractions containing sodium (5R,6S)-3-[(E)-2-acetamidoethenylthio]-6-ethyl-7-oxo-1-azabicyclo[3.2.0]hept-2-ene-2-carboxylate (e73) λmax 308 nm. The minimum inhibitory concentrations (MIC) of this compound was determined using a standard DST agar+10% horse blood substrate.
Sodium (5R,6R)-3-[(E)-2-acetamidoethenylthio]-6-(1-benzylthioethyl)-7-oxo-1-azabicyclo[3.2.0]hept-2-ene-2-carboxylate [drawing 87] The least polar crystalline isomer of the ester (e93) (40 mg) obtained in Example 70 was added to a mixture of 5% Pd on C (60 mg) in 20% aqueous dioxan (5 ml) which had been prehydrogenated for 0.5 h. Hydrogenation was continued for 4 h and the mixture was filtered through Celite after adding NaHCO3 (7 mg) and water (10 ml). The solution was concentrated to a volume of about 10 ml and was then washed with ethyl acetate (3×30 ml). […]

Proteus rettgeri WM16 = assay: minimum inhibitory concentration, Proteus rettgeri WM16 (DST agar+10% horse blood); settings: Providencia rettgeri
Method: as §1, §2, §3

Enterobacter cloacae N1 = assay: minimum inhibitory concentration, Enterobacter cloacae N1 (DST agar+10% horse blood)
Method: as §1, §2, §3

[3] = tested on: Staphylococcus aureus Oxford; assay: minimum inhibitory concentration, Staphylococcus aureus Oxford (DST agar+10% horse blood)
Method: as §1, §2, §3

Bacillus subtilis A = assay: minimum inhibitory concentration, Bacillus subtilis A (DST agar+10% horse blood)
Method: as §1, §2, §3

[4] = tested on: Streptococcus pneumoniae CN33; assay: minimum inhibitory concentration, Streptococcus pneumoniae CN33 (DST agar+10% horse blood)
Method: as §1, §2, §3

Proteus mirabilis C977 = assay: minimum inhibitory concentration, Proteus mirabilis C977 (DST agar+10% horse blood)
Method: as §1, §2, §3

Shigella sonnei MB 11967 = assay: minimum inhibitory concentration, Shigella sonnei MB 11967 (DST agar+10% horse blood)
Method: as §1, §2, §3

Streptococcus faecalis I = assay: minimum inhibitory concentration, Streptococcus faecalis I (DST agar+10% horse blood); settings: Enterococcus faecalis
Method: as §1, §2, §3

Pseudomonas aeruginosa A = assay: minimum inhibitory concentration, Pseudomonas aeruginosa A (DST agar+10% horse blood)
Method: as §1, §2, §3

Klebsiella aerogenes A = assay: minimum inhibitory concentration, Klebsiella aerogenes A (DST agar+10% horse blood)
Method: as §1, §2, §3

E. coli ESS = assay: minimum inhibitory concentration, E. coli ESS (DST agar+10% horse blood); settings: Escherichia coli
Method: as §1, §2, §3

Proteus vulgaris WO91 = assay: minimum inhibitory concentration, Proteus vulgaris WO91 (DST agar+10% horse blood)
Method: as §1, §2, §3

[5] = tested on: Staphylococcus aureus Russell; assay: minimum inhibitory concentration, Staphylococcus aureus Russell (DST agar+10% horse blood)
Method: as §1, §2, §3

[6] = tested on: Staphylococcus aureus 1517; assay: minimum inhibitory concentration, Staphylococcus aureus 1517 (DST agar+10% horse blood)
Method: as §1, §2, §3

[7] = Enterobacter cloacae N1, undiluted inoculum
[8] = Enterobacter cloacae, Enterobactor cloacae N1

Row | Compound | MIC (Escherichia coli JT 39; JT39, undiluted inoculum) [µg/mL] | MIC (Citrobacter freundii E8; undiluted inoculum) [µg/mL] | MIC (Escherichia coli JT 39; JT39) [µg/mL] | MIC (Citrobacter freundii E8) [µg/mL] | MIC [1] [µg/mL] | MIC (Serratia marcescens US20) [µg/mL] | MIC (Escherichia coli 0111) [µg/mL] | MIC (Proteus morganii I580) [µg/mL] | MIC (Proteus rettgeri WM16) [µg/mL] | MIC (Enterobacter cloacae N1; [8]) [µg/mL] | MIC [3] [µg/mL] | MIC (Proteus mirabilis C977) [µg/mL] | MIC (Shigella sonnei MB 11967; MB11967) [µg/mL] | MIC (Streptococcus faecalis I) [µg/mL] | MIC (Pseudomonas aeruginosa A) [µg/mL] | MIC (Klebsiella aerogenes A) [µg/mL] | MIC (E. coli ESS) [µg/mL] | MIC (Proteus vulgaris WO91) [µg/mL] | MIC [5] [µg/mL] | MIC [6] [µg/mL] | other results
1 | CSC(C)[C@H]1C(=O)N2C(C(=O)[O-])=C(S/C=C/NC(C)=O)C[C@H]12.[Na+] (single isomer, unassigned) [e101] | 2.5 | 5 | – | – | – | – | – | – | – | – | – | – | – | – | – | – | – | – | – | – | MIC ([1]; undiluted inoculum): 1.2 µg/mL; MIC (Serratia marcescens US20; undiluted inoculum): 5 µg/mL; MIC ([2]; undiluted inoculum): 0.2 µg/mL; MIC (Escherichia coli 0111; undiluted inoculum): 2.5 µg/mL; MIC (Proteus morganii I580; undiluted inoculum): 12.5 µg/mL; MIC (Proteus rettgeri WM16; undiluted inoculum): 5 µg/mL; MIC (Enterobacter cloacae N1; [7]): 2.5 µg/mL; MIC ([3]; undiluted inoculum): 0.5 µg/mL; MIC (Bacillus subtilis A; undiluted inoculum): 1.2 µg/mL; MIC ([4]; undiluted inoculum): 0.1 µg/mL; MIC (Proteus mirabilis C977; undiluted inoculum): 12.5 µg/mL; MIC (Shigella sonnei MB 11967; MB11967, undiluted inoculum): 1.2 µg/mL; MIC (Streptococcus faecalis I; undiluted inoculum): 12.5 µg/mL; MIC (Pseudomonas aeruginosa A; undiluted inoculum): 50 µg/mL; MIC (Klebsiella aerogenes A; undiluted inoculum): 2.5 µg/mL; MIC (E. coli ESS; undiluted inoculum): 1.2 µg/mL; MIC (Proteus vulgaris WO91; undiluted inoculum): 5 µg/mL; MIC ([5]; undiluted inoculum): 0.5 µg/mL; MIC ([6]; undiluted inoculum): 12.5 µg/mL
2 | CC[C@H]1C(=O)N2C(C(=O)[O-])=C(S/C=C/NC(C)=O)C[C@H]12.[Na+] [e54, sodium (5R,6R)-3-[(E)-2-acetamidoethenylthio]-6-ethyl-7-oxo-1-azabicyclo[3.2.0]hept-2-ene-2-carboxylate] | 3.1 | 12.5 | – | – | – | – | – | – | – | – | – | – | – | – | – | – | – | – | – | – | MIC ([1]; undiluted inoculum): 3.1 µg/mL; MIC (Serratia marcescens US20; undiluted inoculum): 12.5 µg/mL; MIC ([2]; undiluted inoculum): 0.2 µg/mL; MIC (Escherichia coli 0111; undiluted inoculum): 3.1 µg/mL; MIC (Proteus morganii I580; undiluted inoculum): 25 µg/mL; MIC (Proteus rettgeri WM16; undiluted inoculum): 25 µg/mL; MIC (Enterobacter cloacae N1; [7]): 25 µg/mL; MIC ([3]; undiluted inoculum): 0.4 µg/mL; MIC (Bacillus subtilis A; undiluted inoculum): 0.8 µg/mL; MIC ([4]; undiluted inoculum): 0.1 µg/mL; MIC (Proteus mirabilis C977; undiluted inoculum): 25 µg/mL; MIC (Shigella sonnei MB 11967; MB11967, undiluted inoculum): 3.1 µg/mL; MIC (Streptococcus faecalis I; undiluted inoculum): 25 µg/mL; MIC (Pseudomonas aeruginosa A; undiluted inoculum): > 50 µg/mL; MIC (Klebsiella aerogenes A; undiluted inoculum): 3.1 µg/mL; MIC (E. coli ESS; undiluted inoculum): 0.4 µg/mL; MIC (Proteus vulgaris WO91; undiluted inoculum): 25 µg/mL; MIC ([5]; undiluted inoculum): 0.4 µg/mL; MIC ([6]; undiluted inoculum): 12.5 µg/mL
3 | CC[C@@H]1C(=O)N2C(C(=O)[O-])=C(SCCNC(C)=O)C[C@H]12.[Na+] [e63, sodium (5R,6S)-3-(2-acetamidoethylthio)-6-ethyl-7-oxo-1-azabicyclo[3.2.0]hept-2-ene-2-carboxylate] | – | – | 10 | 2.5 | 2.5 | 10 | 2.5 | 40 | 10 | 20 | 0.6 | 10 | 2.5 | 40 | > 40 | 1.2 | 1.2 | 5 | 0.6 | 10 | MIC [2]: 0.1 µg/mL
4 | CC[C@@H]1C(=O)N2C(C(=O)[O-])=C(S/C=C/NC(C)=O)C[C@H]12.[Na+] [e73, sodium (5R,6S)-3-[(E)-2-acetamidoethenylthio]-6-ethyl-7-oxo-1-azabicyclo[3.2.0]hept-2-ene-2-carboxylate] | – | – | 10 | 2.5 | 1.2 | 5 | 2.5 | 5 | 10 | 2.5 | 0.6 | 10 | 2.5 | 40 | > 40 | 2.5 | 0.3 | 10 | 2.5 | > 40 | MIC (Bacillus subtilis A): 1.2 µg/mL; MIC [4]: ≤ 0.1 µg/mL
5 | CC(=O)N/C=C/SC1=C(C(=O)[O-])N2C(=O)[C@H](C(C)SCc3ccccc3)[C@H]2C1.[Na+] (stereo partly drawn) [e94, Sodium (5R,6R)-3-[(E)-2-acetamidoethenylthio]-6-(1-benzylthioethyl)-7-oxo-1-azabicyclo[3.2.0]hept-2-ene-2-carboxylate] | – | – | 3.1 | 6.2 | 1.6 | 6.2 | 3.1 | 6.2 | 6.2 | 3.1 | 0.4 | 12.5 | 1.6 | 25 | 50 | 3.1 | 0.4 | 6.2 | 0.8 | 50 | MIC [2]: 0.4 µg/mL; MIC (Bacillus subtilis A): 1.6 µg/mL; MIC [4]: 0.2 µg/mL
